This is an account of results in ChEMBL document CHEMBL5038633 (J Med Chem, 2022).

Data set [1] is described as follows: Inhibition of mast cell degranulation in Wistar Han rat peritoneal lavage mast cells assessed as inhibition histamine release by measuring lowest concentration at which histamine release observed measured after 30 mins. In kind it is functional. As to conditions: 0.5 h.
Data set [2] addresses Sodium channel protein type 4 subunit alpha (Homo sapiens, UniProt P35499). Put plainly: Inhibition of human Nav1.4 stably expressed in cells with train pulses to -20 mV at 0.1 Hz and holding potential of -95 mV by whole-cell Qube-automated patch clamp assay. In kind it is cell-based. (Patch clamp records ionic current or voltage across a cell membrane.)
Data set [3] addresses Sodium channel protein type 8 subunit alpha (Homo sapiens, UniProt Q9UQD0). The experiment in a line: Inhibition of human Nav1.6 stably expressed in cells with train pulses to -20 mV at 0.1 Hz and holding potential of -85 mV by whole-cell Qube-automated patch clamp assay. In kind it is cell-based.
For data set [4], the target named is T1, Sodium channel protein type 9 subunit alpha (Homo sapiens, UniProt Q15858). Put plainly: Inhibition of human Nav1.7 stably expressed in cells with train pulses to -20 mV at 0.1 Hz and holding potential of -95 mV by Qube-automated patch clamp assay. In kind it is cell-based.
Data set [5] is described as follows: Ratio of IC50 for inhibition of rat Nav1.7 stably expressed in cells to EC50 for antinociceptive activity against Sprague-Dawley rat model of thermal stimuli induced nociception assessed as concentration required for maximal tail flick withdrawal latency. In kind it is functional.
The target of data set [6] is Sodium channel protein type 2 subunit alpha (Homo sapiens, UniProt Q99250). The experiment in a line: Inhibition of human Nav1.2 stably expressed in cells with train pulses to -20 mV at 0.1 Hz and holding potential of -95 mV by Qube-automated patch clamp assay. In kind it is cell-based.
The target of data set [7] is Sodium channel protein type 9 subunit alpha (Rattus norvegicus, UniProt O08562). Put plainly: Inhibition of rat Nav1.7 stably expressed in cells with train pulses to -20 mV at 0.1 Hz and holding potential of -90 mV by whole-cell QPatch HT assay. In kind it is cell-based.
The test system of data set [8] is Rattus norvegicus. The experiment in a line: Antinociceptive activity against Sprague-Dawley rat model of thermal stimuli induced nociception assessed as concentration required for maximal tail flick withdrawal latency administered subcutaneously as single dose measured up to 24 hrs by tail flick test. In kind it is functional, organism-based. (In general: In hot-plate and tail-flick tests a longer latency is read as antinociception.)

Data set [9] can be described thus: Half life in Wistar Han rat at 0.3 mg/kg, iv measured upto 24 hrs by LC/MS/MS analysis. In kind it is ADME, organism-based. As to conditions: in vivo.
Data set [10] concerns the target Voltage-gated inwardly rectifying potassium channel KCNH2 (Homo sapiens, UniProt Q12809). The experiment in a line: Inhibition of human ERG by PatchXpress assay. In kind it is toxicity.
The subject of a further data set is Mast cell. Put plainly: Effect on mast cell degranulation in Wistar Han rat peritoneal lavage mast cells assessed as increase in maximum histamine level in plasma at upto 1 mg/kg, iv administered as bolus dose measured up to 24 hrs by LC/MS/MS analysis. The note with it: dose mg/kg <=1, time hrs <=24. In kind it is functional, organism-based.
The target of data set [11] is Sodium channel protein type 5 subunit alpha (Homo sapiens, UniProt Q14524). The experiment in a line: Inhibition of human Nav1.5 by PatchXpress assay. In kind it is toxicity.
For data set [12], the system named is Rattus norvegicus. Put plainly: Antinociceptive activity against Sprague-Dawley rat model of thermal stimuli induced nociception assessed as increase in tail withdrawal latency administered subcutaneously as single dose measured up to 24 hrs by tail flick test. In kind it is functional, organism-based. As to conditions: time hrs <=24.
Data set [13] deals with T1, Sodium channel protein type 9 subunit alpha. The experiment in a line: Inhibition of human Nav1.7 stably expressed in cells with train pulses to -20 mV at 0.1 Hz and holding potential of -95 mV by whole-cell QPatch HT assay. In kind it is cell-based.
For data set [14], the target named is Voltage-dependent L-type calcium channel subunit alpha-1C (Homo sapiens, UniProt Q13936). Put plainly: Inhibition of human Cav1.2 stably expressed in HEK293 cells incubated for 30 mins in dark by Fluo-4 AM dye based FLIPR assay. In kind it is cell-based.

The pIC50 is the negative decadic logarithm of the IC50, by convention in mol/L. As usually defined, the pEC50 is the negative decadic logarithm of the EC50, by convention in mol/L. The term half-life denotes the time in which the quantity being followed falls by half. Low values mean rapid decline, high ones slow decline.

pEC50, pIC50: −log10 of the molar value. Active and inactive are the calls of the source. The rule behind the calls is not given here. Where a SMILES comes first, the peptide text is derived from it. Bridges are numbered along the chain shown (N, C = ends). [ ]: non-standard residue; d: D form. Abu(4,4,4-F3) = N[C@@H](CC(F)(F)F)C(=O)O; Cha = N[C@@H](CC1CCCCC1)C(=O)O; Chg = N[C@H](C(=O)O)C1CCCCC1

Chain of Sodium channel protein type 8 subunit alpha (Q9UQD0 whole entry): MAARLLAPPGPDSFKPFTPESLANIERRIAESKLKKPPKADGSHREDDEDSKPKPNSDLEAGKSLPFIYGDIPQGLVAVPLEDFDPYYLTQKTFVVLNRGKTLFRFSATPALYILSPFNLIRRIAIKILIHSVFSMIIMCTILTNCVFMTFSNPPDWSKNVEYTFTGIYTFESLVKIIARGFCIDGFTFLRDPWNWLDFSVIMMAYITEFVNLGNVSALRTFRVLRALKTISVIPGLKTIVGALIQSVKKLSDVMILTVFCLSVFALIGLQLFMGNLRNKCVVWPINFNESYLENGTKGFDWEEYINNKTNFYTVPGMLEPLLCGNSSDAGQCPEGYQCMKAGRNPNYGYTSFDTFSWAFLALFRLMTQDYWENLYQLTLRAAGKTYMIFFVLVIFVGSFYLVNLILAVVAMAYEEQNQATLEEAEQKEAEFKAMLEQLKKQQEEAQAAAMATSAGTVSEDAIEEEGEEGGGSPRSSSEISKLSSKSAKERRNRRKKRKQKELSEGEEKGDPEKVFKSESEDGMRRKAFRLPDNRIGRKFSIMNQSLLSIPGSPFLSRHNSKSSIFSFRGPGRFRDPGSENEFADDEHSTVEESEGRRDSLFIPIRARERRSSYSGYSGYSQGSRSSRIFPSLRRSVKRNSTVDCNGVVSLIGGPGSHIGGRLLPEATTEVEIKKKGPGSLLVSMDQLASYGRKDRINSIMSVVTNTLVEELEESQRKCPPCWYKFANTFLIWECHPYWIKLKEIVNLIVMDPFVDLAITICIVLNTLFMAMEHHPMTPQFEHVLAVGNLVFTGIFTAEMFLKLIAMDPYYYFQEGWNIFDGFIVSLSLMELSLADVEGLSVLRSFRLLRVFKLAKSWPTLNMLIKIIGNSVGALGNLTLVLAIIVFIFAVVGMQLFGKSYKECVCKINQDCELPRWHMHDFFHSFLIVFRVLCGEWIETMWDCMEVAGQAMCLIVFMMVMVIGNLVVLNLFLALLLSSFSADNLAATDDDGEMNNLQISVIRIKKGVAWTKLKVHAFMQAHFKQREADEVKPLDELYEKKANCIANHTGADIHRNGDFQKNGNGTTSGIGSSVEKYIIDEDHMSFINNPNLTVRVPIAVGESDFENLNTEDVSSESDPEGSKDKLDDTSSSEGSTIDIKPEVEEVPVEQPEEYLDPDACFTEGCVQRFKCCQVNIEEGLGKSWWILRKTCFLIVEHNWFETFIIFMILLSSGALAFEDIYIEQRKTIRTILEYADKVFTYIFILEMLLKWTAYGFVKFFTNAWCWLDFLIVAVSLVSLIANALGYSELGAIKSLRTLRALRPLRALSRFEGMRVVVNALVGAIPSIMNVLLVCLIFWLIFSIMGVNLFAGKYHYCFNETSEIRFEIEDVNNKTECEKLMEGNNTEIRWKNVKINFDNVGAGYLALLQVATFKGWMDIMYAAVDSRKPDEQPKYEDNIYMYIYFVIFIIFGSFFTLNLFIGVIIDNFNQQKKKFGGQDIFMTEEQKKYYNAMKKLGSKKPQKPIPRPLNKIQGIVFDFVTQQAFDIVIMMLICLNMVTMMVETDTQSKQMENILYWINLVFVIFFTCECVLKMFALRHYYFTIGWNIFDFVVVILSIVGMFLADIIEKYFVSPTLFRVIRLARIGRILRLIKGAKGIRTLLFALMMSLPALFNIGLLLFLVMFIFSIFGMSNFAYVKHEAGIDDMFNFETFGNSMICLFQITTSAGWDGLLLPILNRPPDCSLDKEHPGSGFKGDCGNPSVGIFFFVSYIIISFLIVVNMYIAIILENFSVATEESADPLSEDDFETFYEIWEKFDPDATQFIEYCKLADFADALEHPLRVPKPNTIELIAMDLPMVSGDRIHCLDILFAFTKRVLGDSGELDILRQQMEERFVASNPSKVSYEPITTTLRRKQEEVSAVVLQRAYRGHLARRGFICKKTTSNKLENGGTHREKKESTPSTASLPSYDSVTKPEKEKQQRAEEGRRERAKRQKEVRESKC
Chain of Sodium channel protein type 4 subunit alpha (P35499 whole entry): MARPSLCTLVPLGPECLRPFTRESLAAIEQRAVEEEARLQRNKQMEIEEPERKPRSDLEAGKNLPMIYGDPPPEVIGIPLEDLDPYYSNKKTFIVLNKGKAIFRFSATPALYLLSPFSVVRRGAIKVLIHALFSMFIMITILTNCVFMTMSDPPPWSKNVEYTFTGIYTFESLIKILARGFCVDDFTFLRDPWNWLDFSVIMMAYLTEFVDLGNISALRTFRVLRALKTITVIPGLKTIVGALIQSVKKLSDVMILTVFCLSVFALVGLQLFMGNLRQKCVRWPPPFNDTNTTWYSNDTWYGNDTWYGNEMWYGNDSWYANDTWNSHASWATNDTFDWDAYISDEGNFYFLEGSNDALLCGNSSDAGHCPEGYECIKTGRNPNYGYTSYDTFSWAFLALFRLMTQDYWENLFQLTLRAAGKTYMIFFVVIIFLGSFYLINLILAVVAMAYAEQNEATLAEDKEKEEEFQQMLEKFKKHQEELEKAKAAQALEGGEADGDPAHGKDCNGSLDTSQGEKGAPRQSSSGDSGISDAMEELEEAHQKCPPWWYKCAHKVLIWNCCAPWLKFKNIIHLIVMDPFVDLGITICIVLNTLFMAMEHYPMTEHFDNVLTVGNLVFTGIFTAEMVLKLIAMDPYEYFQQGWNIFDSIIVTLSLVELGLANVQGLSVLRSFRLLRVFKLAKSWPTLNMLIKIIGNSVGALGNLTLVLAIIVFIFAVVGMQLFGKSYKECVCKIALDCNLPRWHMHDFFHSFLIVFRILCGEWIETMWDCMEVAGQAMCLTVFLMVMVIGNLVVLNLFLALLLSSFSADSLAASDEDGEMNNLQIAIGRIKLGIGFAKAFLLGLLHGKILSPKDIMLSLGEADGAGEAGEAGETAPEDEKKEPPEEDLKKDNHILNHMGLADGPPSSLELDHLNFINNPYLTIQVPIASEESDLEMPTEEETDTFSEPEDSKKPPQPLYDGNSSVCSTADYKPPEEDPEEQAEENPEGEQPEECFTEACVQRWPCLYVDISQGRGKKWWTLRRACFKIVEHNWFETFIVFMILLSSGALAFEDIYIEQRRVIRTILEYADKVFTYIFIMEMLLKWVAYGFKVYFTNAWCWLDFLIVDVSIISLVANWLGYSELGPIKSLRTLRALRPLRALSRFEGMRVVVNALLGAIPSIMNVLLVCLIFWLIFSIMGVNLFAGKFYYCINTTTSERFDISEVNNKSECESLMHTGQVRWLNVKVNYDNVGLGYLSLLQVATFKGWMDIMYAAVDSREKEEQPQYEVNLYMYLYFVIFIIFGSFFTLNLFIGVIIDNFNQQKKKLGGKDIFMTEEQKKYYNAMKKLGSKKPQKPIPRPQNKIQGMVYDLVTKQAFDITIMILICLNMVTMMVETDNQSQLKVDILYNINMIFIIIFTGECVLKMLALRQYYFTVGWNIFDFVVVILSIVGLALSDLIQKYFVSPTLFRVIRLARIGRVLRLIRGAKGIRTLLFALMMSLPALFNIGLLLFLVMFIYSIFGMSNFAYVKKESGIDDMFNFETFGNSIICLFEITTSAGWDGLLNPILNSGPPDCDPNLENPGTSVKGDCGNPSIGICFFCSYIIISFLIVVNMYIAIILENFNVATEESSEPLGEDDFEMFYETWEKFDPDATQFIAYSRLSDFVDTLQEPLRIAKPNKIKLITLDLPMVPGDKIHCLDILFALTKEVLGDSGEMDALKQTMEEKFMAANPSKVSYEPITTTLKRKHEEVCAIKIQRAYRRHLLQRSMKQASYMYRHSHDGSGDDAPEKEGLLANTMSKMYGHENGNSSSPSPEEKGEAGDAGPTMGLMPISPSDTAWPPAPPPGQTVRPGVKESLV
Chain of Voltage-gated inwardly rectifying potassium channel KCNH2 (Q12809 whole entry): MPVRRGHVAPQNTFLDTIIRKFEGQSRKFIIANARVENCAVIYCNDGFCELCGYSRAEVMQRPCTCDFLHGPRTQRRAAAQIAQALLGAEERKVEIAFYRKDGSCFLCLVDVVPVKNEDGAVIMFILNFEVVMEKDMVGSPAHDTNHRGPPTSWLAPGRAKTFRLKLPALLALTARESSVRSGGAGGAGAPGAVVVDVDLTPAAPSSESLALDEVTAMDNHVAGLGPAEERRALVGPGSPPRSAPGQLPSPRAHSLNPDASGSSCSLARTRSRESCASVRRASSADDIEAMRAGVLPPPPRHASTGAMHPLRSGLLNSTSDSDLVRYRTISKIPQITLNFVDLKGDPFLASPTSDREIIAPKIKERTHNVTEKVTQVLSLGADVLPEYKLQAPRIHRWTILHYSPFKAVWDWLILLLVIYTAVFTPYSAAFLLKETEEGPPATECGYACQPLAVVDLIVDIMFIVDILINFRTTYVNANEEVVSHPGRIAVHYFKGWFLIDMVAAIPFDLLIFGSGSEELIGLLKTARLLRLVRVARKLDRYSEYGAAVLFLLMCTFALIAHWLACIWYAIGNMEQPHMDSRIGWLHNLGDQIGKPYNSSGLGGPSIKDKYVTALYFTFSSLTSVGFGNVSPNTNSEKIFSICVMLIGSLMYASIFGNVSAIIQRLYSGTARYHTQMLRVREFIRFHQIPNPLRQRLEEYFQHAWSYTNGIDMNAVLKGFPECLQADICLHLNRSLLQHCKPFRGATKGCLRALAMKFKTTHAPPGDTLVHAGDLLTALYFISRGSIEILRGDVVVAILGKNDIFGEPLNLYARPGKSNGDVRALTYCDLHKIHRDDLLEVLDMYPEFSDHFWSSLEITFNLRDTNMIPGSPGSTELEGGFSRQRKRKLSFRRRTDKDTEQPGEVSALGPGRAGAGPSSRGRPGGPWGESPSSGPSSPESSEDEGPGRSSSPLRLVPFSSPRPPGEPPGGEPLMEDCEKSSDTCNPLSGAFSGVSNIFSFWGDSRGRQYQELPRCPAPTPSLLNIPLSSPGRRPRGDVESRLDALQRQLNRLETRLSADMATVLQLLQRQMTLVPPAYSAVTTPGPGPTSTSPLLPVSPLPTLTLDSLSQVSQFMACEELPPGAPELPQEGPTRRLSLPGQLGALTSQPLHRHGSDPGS

`CC(=O)N[C@H]1CSSC[C@@H]2NC(=O)[C@@H]3CSSC[C@@H](C(=O)N[C@@H](CCCCN)C(=O)N[C@@H](CCCCN)C(=O)N[C@@H](CCCCN)C(=O)N[C@@H](CC(C)C)C(=O)N[C@@H](Cc4c[nH]c5ccccc45)C(N)=O)NC(=O)[C@H](Cc4c[nH]c5ccccc45)NC(=O)[C@H](C4CCCCC4)NC(=O)[C@H](CCCCN)NC(=O)[C@H](CSSC[C@H](NC(=O)[C@@H]4CCCN4C(=O)[C@H](CCC(=O)O)NC(=O)[C@H](CC(F)(F)F)NC(=O)[C@H](CC4CCCCC4)NC(=O)[C@H](CCCCN)NC(=O)[C@H](CCC(N)=O)NC1=O)C(=O)N[C@@H](CC(=O)O)C(=O)N[C@@H](CO)C(=O)N[C@@H](CCC(=O)O)C(=O)N[C@@H](CCCNC(=N)N)C(=O)N[C@@H](CCCCN)C(=O)N3)NC(=O)[C@H](CCC(=O)O)NC(=O)[C@H](CC(C)C)NC(=O)CNC(=O)[C@H](CCC(=O)O)NC2=O` (Ac-CQK[Cha][Abu(4,4,4-F3)]EPCDSERKCCEGLECK[Chg]WCKKKLW-NH2; disulfide 1-15, 8-20, 14-24): the LED in data set [1] came to 30 µM. Also, the pIC50 in data set [2] was below 4.77; in data set [3], below 4.77; in data set [4], 6.96.
Take `CC(=O)N[C@H]1CSSC[C@@H]2NC(=O)[C@@H]3CSSC[C@@H](C(=O)N[C@@H](CCCCN)C(=O)N[C@@H](CCCCN)C(=O)N[C@@H](CCCCN)C(=O)N[C@@H](CC(C)C)C(=O)N[C@@H](Cc4c[nH]c5ccccc45)C(N)=O)NC(=O)[C@H](Cc4c[nH]c5ccccc45)NC(=O)[C@H](CC(C)C)NC(=O)[C@H](C(C)C)NC(=O)[C@H](CSSC[C@H](NC(=O)[C@@H]4CCCN4C(=O)[C@H](CCCCN)NC(=O)[C@H](CC(C)C)NC(=O)[C@H](Cc4ccccc4)NC(=O)[C@H](CCC(=O)O)NC(=O)[C@H](CCC(N)=O)NC1=O)C(=O)N[C@@H](CC(=O)O)C(=O)N[C@@H](CCCCN)C(=O)N[C@@H](CCC(=O)O)C(=O)N[C@@H](CCCNC(=N)N)C(=O)N[C@@H](CCCCN)C(=O)N3)NC(=O)[C@H](CCC(=O)O)NC(=O)[C@H](CC(C)C)NC(=O)CNC(=O)[C@H](CCC(=O)O)NC2=O` (Ac-CQEFLKPCDKERKCCEGLECVLWCKKKLW-NH2; disulfide 1-15, 8-20, 14-24): in data set [1], the LED is 10 µM. For the same molecule, the results for the negative logarithm of the IC50 (pIC50) in [2], in data set [3] and in [4] were below 4.77, below 4.77 and 6.60, respectively.
In the case of `CC(=O)N[C@H]1CSSC[C@@H]2NC(=O)[C@@H]3CSSC[C@@H](C(=O)N[C@@H](CCCCN)C(=O)N[C@@H](CCCCN)C(=O)N[C@@H](CCCCN)C(=O)N[C@@H](CC(C)C)C(=O)N[C@@H](Cc4c[nH]c5ccccc45)C(N)=O)NC(=O)[C@H](Cc4c[nH]c5ccccc45)NC(=O)[C@H](CC(C)C)NC(=O)[C@H](CCCCN)NC(=O)[C@H](CSSC[C@H](NC(=O)[C@@H]4CCCN4C(=O)[C@H](C)NC(=O)[C@H](CC(C)C)NC(=O)[C@H](Cc4ccccc4)NC(=O)[C@H](CCCCN)NC(=O)[C@H](CCC(N)=O)NC1=O)C(=O)N[C@@H](CC(=O)O)C(=O)N[C@@H](CCC(=O)O)C(=O)N[C@@H](CCC(=O)O)C(=O)N[C@@H](CCCNC(=N)N)C(=O)N[C@@H](CCCCN)C(=O)N3)NC(=O)[C@H](C(C)C)NC(=O)[C@H](CC(C)C)NC(=O)CNC(=O)[C@H](CCC(=O)O)NC2=O` (Ac-CQKFLAPCDEERKCCEGLVCKLWCKKKLW-NH2; disulfide 1-15, 8-20, 14-24), in [1], the LED worked out at 3.3 µM. Besides, the negative logarithm of the IC50 (pIC50) in data set [2] is 4.82; in data set [3], 4.99; in data set [4] it was 7.13.
As for `CC(=O)N[C@H]1CSSC[C@@H]2NC(=O)[C@@H]3CSSC[C@@H](C(=O)N[C@@H](CCCCN)C(=O)N[C@@H](CCCCN)C(=O)N[C@@H](CCCCN)C(=O)N[C@@H](CC(C)C)C(=O)N[C@@H](Cc4c[nH]c5ccccc45)C(N)=O)NC(=O)[C@H](Cc4c[nH]c5ccccc45)NC(=O)[C@H](CC(C)C)NC(=O)[C@H](CCCCN)NC(=O)[C@H](CSSC[C@H](NC(=O)[C@@H]4CCCN4C(=O)[C@H](CCC(=O)O)NC(=O)[C@H](CC(C)C)NC(=O)[C@H](Cc4ccccc4)NC(=O)[C@H](CCCCN)NC(=O)[C@H](CCC(N)=O)NC1=O)C(=O)N[C@@H](CC(=O)O)C(=O)N[C@@H](CO)C(=O)N[C@@H](CCC(=O)O)C(=O)N[C@@H](CCCNC(=N)N)C(=O)N[C@@H](CCCCN)C(=O)N3)NC(=O)[C@H](CCC(=O)O)NC(=O)[C@H](CC(C)C)NC(=O)CNC(=O)[C@H](CCC(=O)O)NC2=O` (Ac-CQKFLEPCDSERKCCEGLECKLWCKKKLW-NH2; disulfide 1-15, 8-20, 14-24), the “fold change (FC)” value in [5] is 50. The pIC50 in data set [6] is below 4.77; in data set [7] it was 7.73; in data set [10] it was below 4.82; in [11], below 4.82; in data set [2], below 4.77; in [3] it was below 4.77. Besides, the pIC50 in [13] is 6.88; in data set [14], below 4.52; in data set [4] it was 6.74. Further, in the data set on Rattus norvegicus [8], the pEC50 is 5.79. Also, the LED in data set [1] is 30 µM. For the same molecule, in data set [9], the half-life is below 180 min. Besides, the outcome in the data set on Mast cell was inactive. Besides, the Activity entry in the data set on Rattus norvegicus [12] is “Dose-Dependent Effect”.
Regarding `CC(=O)N[C@H]1CSSC[C@@H]2NC(=O)[C@@H]3CSSC[C@@H](C(=O)N[C@@H](CCCCN)C(=O)N[C@@H](CCCCN)C(=O)N[C@@H](CCCCN)C(=O)N[C@@H](CC(C)C)C(=O)N[C@@H](Cc4c[nH]c5ccccc45)C(N)=O)NC(=O)[C@H](Cc4c[nH]c5ccccc45)NC(=O)[C@H](CC(C)C)NC(=O)[C@H](CCCNC(=N)N)NC(=O)[C@H](CSSC[C@H](NC(=O)[C@@H]4CCCN4C(=O)[C@H](CCCCN)NC(=O)[C@H](CC(C)C)NC(=O)[C@H](Cc4ccccc4)NC(=O)[C@H](CCC(=O)O)NC(=O)[C@H](CCC(N)=O)NC1=O)C(=O)N[C@@H](CC(=O)O)C(=O)N[C@@H](CO)C(=O)N[C@@H](CCC(=O)O)C(=O)N[C@@H](CCCNC(=N)N)C(=O)N[C@@H](CCCCN)C(=O)N3)NC(=O)[C@H](C(C)C)NC(=O)[C@H](CC(C)C)NC(=O)CNC(=O)[C@H](CCC(=O)O)NC2=O` (Ac-CQEFLKPCDSERKCCEGLVCRLWCKKKLW-NH2; disulfide 1-15, 8-20, 14-24), in data set [1], the LED is 10 µM. Further, the negative logarithm of the IC50 (pIC50) in data set [2] is 5.38; in data set [3], 5.32; in [4] it was 7.57.
In the same order, the values of `CC(=O)N[C@H]1CSSC[C@@H]2NC(=O)[C@@H]3CSSC[C@@H](C(=O)N[C@@H](CCCCN)C(=O)N[C@@H](CCCCN)C(=O)N[C@@H](CCCCN)C(=O)N[C@@H](CC(C)C)C(=O)N[C@@H](Cc4c[nH]c5ccccc45)C(N)=O)NC(=O)[C@H](Cc4c[nH]c5ccccc45)NC(=O)[C@H](CC(C)C)NC(=O)[C@H](CCCCN)NC(=O)[C@H](CSSC[C@H](NC(=O)[C@@H]4CCCN4C(=O)[C@H](CCCCN)NC(=O)[C@H](CC(C)C)NC(=O)[C@H](Cc4ccccc4)NC(=O)[C@H](CCC(=O)O)NC(=O)[C@H](CCC(N)=O)NC1=O)C(=O)N[C@@H](CC(=O)O)C(=O)N[C@@H](CO)C(=O)N[C@@H](CCC(=O)O)C(=O)N[C@@H](CCCNC(=N)N)C(=O)N[C@@H](CCCCN)C(=O)N3)NC(=O)[C@H](CCC(=O)O)NC(=O)[C@H](CC(C)C)NC(=O)CNC(=O)[C@H](CCC(=O)O)NC2=O` (Ac-CQEFLKPCDSERKCCEGLECKLWCKKKLW-NH2; disulfide 1-15, 8-20, 14-24) are 3.3 µM, below 4.77, below 4.77 and 6.95.
